Reference: ChEMBL document CHEMBL1135040, “[(3)H]-M-MPEP, a potent, subtype-selective radioligand for the metabotropic glutamate receptor subtype 5” (Bioorg Med Chem Lett, 2002)

Assays:
[1] = biological target: T1, Metabotropic glutamate receptor 5 (Homo sapiens, UniProt P41594); assay: Tested in vitro binding affinity for displacement of [3H]M-MPEP from membrane of L(-tk) cells expressing the Metabotropic glutamate receptor 5, activity expressed as IC50
[2] = biological target: T1, Metabotropic glutamate receptor 5; assay: In vitro for inhibitory activity of compound against recombinant Metabotropic glutamate receptor 5 evaluated as inhibition of quisqualate-stimulated phosphoinositide (PI) hydrolysis; type: functional

T1 sequence (P41594 whole entry): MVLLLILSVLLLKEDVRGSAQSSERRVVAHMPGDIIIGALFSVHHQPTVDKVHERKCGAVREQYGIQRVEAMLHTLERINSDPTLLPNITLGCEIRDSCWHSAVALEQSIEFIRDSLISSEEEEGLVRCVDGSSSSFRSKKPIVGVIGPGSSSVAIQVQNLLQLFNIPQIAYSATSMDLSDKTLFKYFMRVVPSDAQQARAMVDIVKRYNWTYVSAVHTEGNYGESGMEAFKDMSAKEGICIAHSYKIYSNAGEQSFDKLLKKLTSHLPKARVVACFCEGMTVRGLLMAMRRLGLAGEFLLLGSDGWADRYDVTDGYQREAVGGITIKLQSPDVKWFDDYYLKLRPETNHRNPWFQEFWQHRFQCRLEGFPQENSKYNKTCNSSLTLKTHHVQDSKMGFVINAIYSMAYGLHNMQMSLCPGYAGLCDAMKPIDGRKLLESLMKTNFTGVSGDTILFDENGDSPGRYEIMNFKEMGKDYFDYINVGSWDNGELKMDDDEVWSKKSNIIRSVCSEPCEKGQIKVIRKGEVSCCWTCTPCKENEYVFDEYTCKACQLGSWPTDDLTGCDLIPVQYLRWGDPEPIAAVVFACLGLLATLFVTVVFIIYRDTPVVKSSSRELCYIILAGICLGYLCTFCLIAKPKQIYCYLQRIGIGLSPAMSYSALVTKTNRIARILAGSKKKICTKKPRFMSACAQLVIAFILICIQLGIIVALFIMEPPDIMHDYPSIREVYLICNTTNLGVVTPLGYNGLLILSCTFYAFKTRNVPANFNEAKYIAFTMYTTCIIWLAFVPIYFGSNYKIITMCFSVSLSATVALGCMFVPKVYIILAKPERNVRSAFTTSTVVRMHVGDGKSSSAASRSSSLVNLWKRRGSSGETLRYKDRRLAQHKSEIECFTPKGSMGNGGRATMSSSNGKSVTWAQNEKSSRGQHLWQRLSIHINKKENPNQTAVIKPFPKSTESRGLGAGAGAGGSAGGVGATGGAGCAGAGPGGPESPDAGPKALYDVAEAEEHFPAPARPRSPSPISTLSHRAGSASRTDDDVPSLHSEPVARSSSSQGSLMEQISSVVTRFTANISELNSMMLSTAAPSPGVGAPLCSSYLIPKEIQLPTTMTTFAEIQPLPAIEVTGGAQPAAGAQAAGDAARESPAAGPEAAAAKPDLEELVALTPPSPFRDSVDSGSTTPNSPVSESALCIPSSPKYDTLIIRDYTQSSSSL

## [3H]C([3H])([3H])OCc1cccc(C#Cc2cccc(C)n2)c1
[1]
  IC50: 3.6 nM
[2]
  IC50: 10 nM

## Cc1cccc(/C=C/c2ccccc2)n1
[1]
  IC50: 1100 nM
[2]
  IC50: 3000 nM
